Reference: patent US12018283B2, “Method for producing insulin-producing cells” (KATAOKA CORPORATION, priority 2018, dated 2024)

Test system: human fibroblasts
Assay: Direct induction from human fibroblasts into insulin-producing cells (immunostaining, morphology)
Assay type: cell-based
Details: from Table 1 and FIGS. 3 and 4; removal of one compound at a time

Row | Compound | importance for conversion into cells expressing insulin
1 | C=C[C@@]1(C)CC(=O)[C@]2(O)[C@@]3(C)[C@@H](O)CCC(C)(C)[C@@H]3[C@H](O)[C@H](OC(C)=O)[C@@]2(C)O1 [forskolin, Forskolin] | of particular importance
2 | O=c1cc(N2CCOCC2)oc2c(-c3ccccc3)cccc12 [LY294002] | of particular importance
